Data from paper PMC6429214, “Design, Synthesis and Biological Evaluation of Isoxazole-Based CK1 Inhibitors Modified with Chiral Pyrrolidine Scaffolds” (Molecules, 2019).

Assays:
Experiment in all cases: 33PanQinase panel
Format in all cases: biochemical
ABL2 = target: T1, ABL2 (Homo sapiens, UniProt P42684); settings: ABL2, 1 µM; read-out: Residual Activity (%)
T1 construct: purchased ProQinase
In short: (§1)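 Activity-based radiometric profiling: one concentration (1 µM), 1% DMSO in reaction mix, output as % remaining activity against DMSO-treated control.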

ARK5 = target: T2, ARK5 (Homo sapiens, UniProt O60285); settings: ARK5, 1 µM; read-out: Residual Activity (%)
T2 construct: purchased ProQinase
In short: as §1

CAMK2G = target: T3, CAMK2G (Homo sapiens, UniProt Q13555); settings: read-out: Residual Activity (%)
T3 construct: purchased ProQinase
T3 sequence (Q13555 whole entry): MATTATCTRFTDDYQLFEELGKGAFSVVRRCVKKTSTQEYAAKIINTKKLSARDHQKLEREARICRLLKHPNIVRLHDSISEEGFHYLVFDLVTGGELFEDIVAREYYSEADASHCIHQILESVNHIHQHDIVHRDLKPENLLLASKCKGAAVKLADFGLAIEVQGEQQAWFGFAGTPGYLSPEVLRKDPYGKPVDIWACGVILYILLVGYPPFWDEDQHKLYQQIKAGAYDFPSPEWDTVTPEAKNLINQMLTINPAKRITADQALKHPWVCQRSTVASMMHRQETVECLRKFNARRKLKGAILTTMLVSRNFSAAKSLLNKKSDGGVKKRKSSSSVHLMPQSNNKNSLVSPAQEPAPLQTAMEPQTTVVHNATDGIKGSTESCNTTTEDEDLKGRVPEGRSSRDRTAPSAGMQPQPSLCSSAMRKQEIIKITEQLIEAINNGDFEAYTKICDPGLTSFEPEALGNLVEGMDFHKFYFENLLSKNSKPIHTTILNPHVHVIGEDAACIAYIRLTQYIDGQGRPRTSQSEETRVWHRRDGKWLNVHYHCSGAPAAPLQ
In short: as §1

CDK19/CycC = target: T4, CDK19/CycC (Homo sapiens, UniProt Q9BWU1); settings: read-out: Residual Activity (%)
T4 construct: purchased ProQinase
In short: as §1

CDK9/CycK = target: T5, CDK9/CycK (Homo sapiens, UniProt P50750); settings: read-out: Residual Activity (%)
T5 construct: purchased ProQinase
In short: as §1

CK1-gamma3 = target: T6, CK1-gamma3 (Homo sapiens, UniProt Q9Y6M4); settings: CK1-gamma3, 1 µM; read-out: Residual Activity (%)
T6 construct: purchased ProQinase
In short: as §1

EPHA6 = target: T7, EPHA6 (Homo sapiens, UniProt Q9UF33); settings: EPHA6, 1 µM; read-out: Residual Activity (%)
T7 construct: purchased ProQinase
In short: as §1

FER = target: T8, FER (Homo sapiens, UniProt P16591); settings: read-out: Residual Activity (%)
T8 construct: purchased ProQinase
T8 sequence (P16591 whole entry): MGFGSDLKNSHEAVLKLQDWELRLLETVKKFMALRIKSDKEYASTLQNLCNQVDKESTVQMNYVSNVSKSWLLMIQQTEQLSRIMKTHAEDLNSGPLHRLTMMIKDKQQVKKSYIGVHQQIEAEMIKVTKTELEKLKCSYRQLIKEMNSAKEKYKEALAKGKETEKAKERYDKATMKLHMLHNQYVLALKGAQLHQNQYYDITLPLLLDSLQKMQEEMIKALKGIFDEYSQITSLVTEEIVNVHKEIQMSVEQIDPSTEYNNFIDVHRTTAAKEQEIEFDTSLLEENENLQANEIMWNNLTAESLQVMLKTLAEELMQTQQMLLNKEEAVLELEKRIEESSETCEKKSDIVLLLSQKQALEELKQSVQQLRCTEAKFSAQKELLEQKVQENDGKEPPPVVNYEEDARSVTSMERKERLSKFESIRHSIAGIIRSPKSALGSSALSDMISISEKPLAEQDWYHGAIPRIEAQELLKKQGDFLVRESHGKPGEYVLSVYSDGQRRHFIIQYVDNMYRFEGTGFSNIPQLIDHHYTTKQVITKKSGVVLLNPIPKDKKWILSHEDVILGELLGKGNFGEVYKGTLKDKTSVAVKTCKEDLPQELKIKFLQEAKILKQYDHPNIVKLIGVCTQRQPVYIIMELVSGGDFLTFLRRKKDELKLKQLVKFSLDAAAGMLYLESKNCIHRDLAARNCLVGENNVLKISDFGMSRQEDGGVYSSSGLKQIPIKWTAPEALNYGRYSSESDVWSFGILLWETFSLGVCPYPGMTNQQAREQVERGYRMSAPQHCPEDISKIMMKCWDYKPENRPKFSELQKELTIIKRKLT
In short: as §1

INSR-R = target: T9, INSR-R (Homo sapiens, UniProt P14616); settings: read-out: Residual Activity (%)
T9 construct: purchased ProQinase
In short: as §1

MARK1 = target: T10, MARK1 (Homo sapiens, UniProt Q9P0L2); settings: MARK1, 1 µM; read-out: Residual Activity (%)
T10 construct: purchased ProQinase
In short: as §1

MELK = target: T11, MELK (Homo sapiens, UniProt Q14680); settings: read-out: Residual Activity (%)
T11 construct: purchased ProQinase
T11 sequence (Q14680 whole entry): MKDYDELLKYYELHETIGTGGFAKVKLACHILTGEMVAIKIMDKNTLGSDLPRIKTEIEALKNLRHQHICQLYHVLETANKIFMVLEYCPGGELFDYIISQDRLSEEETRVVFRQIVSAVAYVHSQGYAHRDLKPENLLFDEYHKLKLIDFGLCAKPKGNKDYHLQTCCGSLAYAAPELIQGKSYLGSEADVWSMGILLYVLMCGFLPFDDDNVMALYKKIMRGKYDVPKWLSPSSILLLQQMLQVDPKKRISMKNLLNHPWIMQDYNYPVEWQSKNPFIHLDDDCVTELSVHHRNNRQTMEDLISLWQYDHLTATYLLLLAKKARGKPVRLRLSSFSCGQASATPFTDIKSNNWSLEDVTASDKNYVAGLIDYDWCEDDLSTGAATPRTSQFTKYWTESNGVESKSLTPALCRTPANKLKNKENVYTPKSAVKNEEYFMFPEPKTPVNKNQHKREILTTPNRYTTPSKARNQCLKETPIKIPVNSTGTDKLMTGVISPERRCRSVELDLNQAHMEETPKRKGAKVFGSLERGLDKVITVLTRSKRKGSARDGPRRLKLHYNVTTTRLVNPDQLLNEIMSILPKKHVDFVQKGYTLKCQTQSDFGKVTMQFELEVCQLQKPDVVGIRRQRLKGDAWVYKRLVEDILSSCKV
In short: as §1

MINK1 = target: T12, MINK1 (Homo sapiens, UniProt Q8N4C8); settings: MINK1, 1 µM; read-out: Residual Activity (%)
T12 construct: purchased ProQinase
In short: as §1

MKK7 = target: T13, MKK7 (Homo sapiens, UniProt O14733); settings: MKK7, 1 µM; read-out: Residual Activity (%)
T13 construct: purchased ProQinase
T13 sequence (O14733 whole entry): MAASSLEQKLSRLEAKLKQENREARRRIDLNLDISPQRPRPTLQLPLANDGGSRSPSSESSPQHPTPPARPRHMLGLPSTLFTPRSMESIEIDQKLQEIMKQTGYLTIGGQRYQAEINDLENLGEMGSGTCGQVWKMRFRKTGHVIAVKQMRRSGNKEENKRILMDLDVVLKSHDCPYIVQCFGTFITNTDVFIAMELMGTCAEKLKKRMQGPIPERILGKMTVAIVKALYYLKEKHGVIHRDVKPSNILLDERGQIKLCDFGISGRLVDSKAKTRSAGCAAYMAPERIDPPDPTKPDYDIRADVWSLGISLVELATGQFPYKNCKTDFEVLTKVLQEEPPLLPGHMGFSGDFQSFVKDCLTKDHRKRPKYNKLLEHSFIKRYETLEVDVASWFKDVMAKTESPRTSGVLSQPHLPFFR
In short: as §1

MST4 = target: T14, MST4 (Homo sapiens, UniProt Q9P289); settings: MST4, 1 µM; read-out: Residual Activity (%)
T14 construct: purchased ProQinase
In short: as §1

MYLK = target: T15, MYLK (Homo sapiens, UniProt Q15746); settings: read-out: Residual Activity (%)
T15 construct: purchased ProQinase
In short: as §1

NEK2 = target: T16, NEK2 (Homo sapiens, UniProt P51955); settings: NEK2, 1 µM; read-out: Residual Activity (%)
T16 construct: purchased ProQinase
T16 sequence (P51955 whole entry): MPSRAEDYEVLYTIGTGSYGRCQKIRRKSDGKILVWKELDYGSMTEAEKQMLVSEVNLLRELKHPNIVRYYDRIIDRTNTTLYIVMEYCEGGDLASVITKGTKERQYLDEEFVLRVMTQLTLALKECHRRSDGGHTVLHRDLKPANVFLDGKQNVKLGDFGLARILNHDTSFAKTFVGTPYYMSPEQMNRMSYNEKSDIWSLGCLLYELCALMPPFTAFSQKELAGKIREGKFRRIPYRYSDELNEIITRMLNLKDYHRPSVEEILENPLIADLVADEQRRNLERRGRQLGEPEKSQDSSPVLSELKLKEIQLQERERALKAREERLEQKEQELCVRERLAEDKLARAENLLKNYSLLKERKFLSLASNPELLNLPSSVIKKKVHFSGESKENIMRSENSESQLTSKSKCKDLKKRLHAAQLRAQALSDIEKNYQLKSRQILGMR
In short: as §1

NEK4 = target: T17, NEK4 (Homo sapiens, UniProt P51957); settings: NEK4, 1 µM; read-out: Residual Activity (%)
T17 construct: purchased ProQinase
In short: as §1

PASK = target: T18, PASK (Homo sapiens, UniProt Q96RG2); settings: read-out: Residual Activity (%)
T18 construct: purchased ProQinase
In short: as §1

PKC-beta1 = target: T19, PKC-beta1 (Homo sapiens, UniProt P05771); settings: PKC-beta1, 1 µM; read-out: Residual Activity (%)
T19 construct: purchased ProQinase
T19 sequence (P05771 whole entry): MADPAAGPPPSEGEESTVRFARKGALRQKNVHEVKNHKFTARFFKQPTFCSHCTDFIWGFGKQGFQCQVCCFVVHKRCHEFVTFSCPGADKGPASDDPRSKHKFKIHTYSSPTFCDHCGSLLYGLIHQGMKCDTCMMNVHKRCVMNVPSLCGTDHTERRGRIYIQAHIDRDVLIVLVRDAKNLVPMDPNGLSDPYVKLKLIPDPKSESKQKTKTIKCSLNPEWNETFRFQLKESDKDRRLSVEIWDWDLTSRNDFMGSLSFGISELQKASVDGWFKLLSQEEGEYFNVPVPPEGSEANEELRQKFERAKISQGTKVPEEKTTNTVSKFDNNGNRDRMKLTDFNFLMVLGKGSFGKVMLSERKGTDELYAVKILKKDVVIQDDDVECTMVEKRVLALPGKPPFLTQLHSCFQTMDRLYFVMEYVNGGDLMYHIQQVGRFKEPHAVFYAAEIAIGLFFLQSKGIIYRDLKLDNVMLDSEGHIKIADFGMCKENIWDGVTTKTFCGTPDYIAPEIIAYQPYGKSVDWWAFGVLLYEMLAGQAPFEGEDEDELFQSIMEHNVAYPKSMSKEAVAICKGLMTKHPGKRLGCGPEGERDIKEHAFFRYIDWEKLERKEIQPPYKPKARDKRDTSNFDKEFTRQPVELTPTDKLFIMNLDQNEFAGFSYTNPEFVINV
In short: as §1

PLK3 = target: T20, PLK3 (Homo sapiens, UniProt Q9H4B4); settings: PLK3, 1 µM; read-out: Residual Activity (%)
T20 construct: purchased ProQinase
In short: as §1

PRK1 = target: T21, PRK1 (Homo sapiens, UniProt Q16512); settings: PRK1, 1 µM; read-out: Residual Activity (%)
T21 construct: purchased ProQinase
In short: as §1

RIPK5 = target: T22, RIPK5 (Homo sapiens, UniProt Q6XUX3); settings: RIPK5, 1 µM; read-out: Residual Activity (%)
T22 construct: purchased ProQinase
In short: as §1

ROCK2 = target: T23, ROCK2 (Homo sapiens, UniProt O75116); settings: ROCK2, 1 µM; read-out: Residual Activity (%)
T23 construct: purchased ProQinase
T23 sequence (O75116 whole entry): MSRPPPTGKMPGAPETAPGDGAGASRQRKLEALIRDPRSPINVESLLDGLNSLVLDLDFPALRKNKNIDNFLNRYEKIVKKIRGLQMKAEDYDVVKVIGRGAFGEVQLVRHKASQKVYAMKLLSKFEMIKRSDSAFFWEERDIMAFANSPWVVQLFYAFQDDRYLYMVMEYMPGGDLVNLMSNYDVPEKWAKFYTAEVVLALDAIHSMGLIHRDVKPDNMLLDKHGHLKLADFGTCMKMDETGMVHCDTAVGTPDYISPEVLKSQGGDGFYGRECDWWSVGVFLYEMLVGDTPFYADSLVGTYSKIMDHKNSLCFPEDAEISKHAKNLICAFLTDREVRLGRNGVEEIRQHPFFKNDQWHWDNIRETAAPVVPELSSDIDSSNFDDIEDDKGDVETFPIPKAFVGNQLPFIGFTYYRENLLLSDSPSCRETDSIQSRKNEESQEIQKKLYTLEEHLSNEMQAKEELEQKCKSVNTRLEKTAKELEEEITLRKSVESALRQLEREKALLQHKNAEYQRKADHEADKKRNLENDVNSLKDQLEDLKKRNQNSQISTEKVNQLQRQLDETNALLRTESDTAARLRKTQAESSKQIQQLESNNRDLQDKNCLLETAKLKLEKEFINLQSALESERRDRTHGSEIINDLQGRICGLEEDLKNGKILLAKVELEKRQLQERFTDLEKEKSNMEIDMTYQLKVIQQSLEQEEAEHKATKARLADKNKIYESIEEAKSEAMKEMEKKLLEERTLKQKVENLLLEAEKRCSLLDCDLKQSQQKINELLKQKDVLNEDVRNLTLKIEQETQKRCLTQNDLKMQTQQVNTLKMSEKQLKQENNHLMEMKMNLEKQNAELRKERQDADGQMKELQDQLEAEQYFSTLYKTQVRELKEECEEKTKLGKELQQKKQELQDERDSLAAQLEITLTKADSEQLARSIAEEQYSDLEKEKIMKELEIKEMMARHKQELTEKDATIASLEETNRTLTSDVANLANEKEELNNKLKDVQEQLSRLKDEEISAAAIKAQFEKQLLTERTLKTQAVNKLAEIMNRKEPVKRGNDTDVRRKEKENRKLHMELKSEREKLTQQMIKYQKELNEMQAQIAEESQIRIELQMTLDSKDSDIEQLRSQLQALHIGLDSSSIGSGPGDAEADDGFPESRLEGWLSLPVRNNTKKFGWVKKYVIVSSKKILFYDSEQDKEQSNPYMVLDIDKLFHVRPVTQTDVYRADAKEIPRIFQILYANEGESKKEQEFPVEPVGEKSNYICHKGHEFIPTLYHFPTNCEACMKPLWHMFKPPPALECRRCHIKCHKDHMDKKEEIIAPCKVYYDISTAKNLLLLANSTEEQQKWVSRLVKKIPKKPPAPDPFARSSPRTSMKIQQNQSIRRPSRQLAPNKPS
In short: as §1

RPS6KA4 = target: T24, RPS6KA4 (Homo sapiens, UniProt O75676); settings: RPS6KA4, 1 µM; read-out: Residual Activity (%)
T24 construct: purchased ProQinase
In short: as §1

SNK = target: T25, SNK (Homo sapiens, UniProt Q9NYY3); settings: read-out: Residual Activity (%)
T25 construct: purchased ProQinase
In short: as §1

TLK1 = target: T26, TLK1 (Homo sapiens, UniProt Q9UKI8); settings: TLK1, 1 µM; read-out: Residual Activity (%)
T26 construct: purchased ProQinase
In short: as §1

WNK1 = target: T27, WNK1 (Homo sapiens, UniProt Q9H4A3); settings: WNK1, 1 µM; read-out: Residual Activity (%)
T27 construct: purchased ProQinase
In short: as §1

mTOR = target: T28, mTOR (Homo sapiens, UniProt P42345); settings: read-out: Residual Activity (%)
T28 construct: purchased ProQinase
In short: as §1

For COc1ccc(-c2cc(C(=O)Nc3cc(-c4c(-c5ccc(F)cc5)noc4C(C)C)ccn3)n(CC3NCC(O)C3O)c2)cc1 (stereo not shown) [29d], the remaining activity at 1 µM (ABL2) was 110%, the remaining activity at 1 µM (ARK5) was 100% and the remaining activity at 1 µM (CAMK2G) was 119%. It also gave a remaining activity at 1 µM (CDK19/CycC) of 84%, a remaining activity at 1 µM (CDK9/CycK) of 97% and a remaining activity at 1 µM (CK1-gamma3) of 74%. The remaining activity at 1 µM (EPHA6) was 108%, the remaining activity at 1 µM (FER) was 98% and the remaining activity at 1 µM (INSR-R) was 89%. The remaining activity at 1 µM (MARK1) was 80%, the remaining activity at 1 µM (MELK) was 107% and the remaining activity at 1 µM (MINK1) was 82%. The remaining activity at 1 µM (MKK7) was 95%, the remaining activity at 1 µM (MST4) was 108% and the remaining activity at 1 µM (MYLK) was 106%. For the same compound, the remaining activity at 1 µM (NEK2) was 89%, the remaining activity at 1 µM (NEK4) was 108% and the remaining activity at 1 µM (PASK) was 99%. It also gave a remaining activity at 1 µM (PKC-beta1) of 116%, a remaining activity at 1 µM (PLK3) of 112% and a remaining activity at 1 µM (PRK1) of 94%. The remaining activity at 1 µM (RIPK5) was 99%, the remaining activity at 1 µM (ROCK2) was 92% and the remaining activity at 1 µM (RPS6KA4) was 105%. The remaining activity at 1 µM (SNK) was 108%, the remaining activity at 1 µM (TLK1) was 77% and the remaining activity at 1 µM (WNK1) was 90%. It also gave a remaining activity at 1 µM (mTOR) of 127%.
